Patent publication US11396497B2, “Proteasome inhibitors” (New Mexico Tech University Research Park Corporation, priority 2018, dated 2022)
Read-outs that look alike come from different tables or passages of the source.

How the values were obtained:
[1] = biological target: T1, chymotrypsin-like activity of the 26S proteasome (Homo sapiens, UniProt P28074); assay: Proteasome assay, chymotrypsin-like (ChT-L) activity, Suc-LLVY-AMC, Jurkat cell lysate; type: biochemical; details: for IC50: ± S.D., read-out: Proteasome Inhibition ChT-like IC50
T1 construct: endogenous in cells; host or cells: Jurkat (ATCC TIB-152, E6-1 clone) cell lysate
T1 sequence (P28074 60-263): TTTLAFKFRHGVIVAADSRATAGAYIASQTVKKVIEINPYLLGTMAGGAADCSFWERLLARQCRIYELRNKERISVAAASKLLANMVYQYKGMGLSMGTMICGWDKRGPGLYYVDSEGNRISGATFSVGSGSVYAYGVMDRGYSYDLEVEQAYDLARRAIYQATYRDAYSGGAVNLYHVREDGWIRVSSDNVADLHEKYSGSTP
Protocol: (§1) The lysate was stored at −80° C. until the sample was used for the proteasome assay.
(§2) The compounds were diluted with lysis buffer; 10 μL of the compound-containing solution was added to the test wells at ten times the final concentration. […] The results are reported as the average of at least 3 technical replicates of IC50 values for proteasome inhibition.

MCF7 cells [2] = test system: MCF7 cells
MDA-MB-231 cells [3] = test system: MDA-MB-231 cells
Protocol: (§4) The cells were incubated at 37° C. in a humidified atmosphere with 5% CO2.
(§5) 100 μL of cells were added to each well of a 96 well microtiter plate at a concentration of 4×10^4 cells/mL and incubated overnight to allow proper adhesion. (RPMI 8226 cells were plated at 4×10^5 cells/mL). The cells were treated with the panel of test compounds at a series of concentrations, along with vehicle control DMSO and untreated cells as controls. After 48 h incubation, 20 μL of MTT reagent (3-(4,5-dimethylthiazol-2-yl)-2,5-diphenyltetrazolium bromide) in PBS (5 mg/mL) was added to each well of the plates. The plate was incubated for 2 h at 37° C. For adherent cell lines, the media was removed from each well of the plate and the resulting formazan crystals dissolved in 100 μL of DMSO. For RPMI 8226 cells, 200 ul of DMF/SDS mix (50% DMF. 10% w/v SDS pH<4) was used to solubilize the formazan crystals. Optical density (OD) at 490 nm was measured using a microplate reader. Cells treated with 1 μM phenyl arsine oxide (PAO) served as a positive cell-killing control. Technical replicates of these assays were performed in biological quadruplicate, and the three best values were used for analysis in order to eliminate outliers. Data presented are the average IC50 value calculated from at least 3 technical replicates with the corresponding standard deviation.

RPMI 8226 cells [4] = test system: RPMI 8226 cells
Protocol: as §4, §5

[5] = biological target: T2, trypsin-like activity of the 26S proteasome (Homo sapiens, UniProt Q99436); assay: Proteasome assay, trypsin-like (T-L) activity, SUC-RLR-AMC, Jurkat cell lysate; type: biochemical
T2 construct: endogenous in cells; host or cells: Jurkat (ATCC TIB-152, E6-1 clone) cell lysate
T2 sequence (Q99436 44-277): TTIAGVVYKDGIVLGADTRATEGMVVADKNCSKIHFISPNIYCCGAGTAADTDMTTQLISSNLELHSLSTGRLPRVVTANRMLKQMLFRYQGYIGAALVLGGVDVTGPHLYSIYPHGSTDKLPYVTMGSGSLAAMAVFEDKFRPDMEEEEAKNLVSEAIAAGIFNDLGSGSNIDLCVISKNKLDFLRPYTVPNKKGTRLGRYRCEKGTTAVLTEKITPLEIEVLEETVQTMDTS
Protocol: as §1, §2

MCF7 cells [6] = assay: MTT assay cytotoxicity MCF7
RPMI 8226 cells [7] = assay: MTT assay cytotoxicity RPMI 8226; details: read-out: Cytotoxicity RPMI 8226 IC50
Protocol: as §4, §5

MDA-MB-231 cells [8] = assay: MTT assay cytotoxicity MDA-MB-231
Protocol: as §4, §5

[9] = biological target: T3, yeast proteasome yβ1 subunit (Saccharomyces cerevisiae, UniProt P25043+P38624); assay: Subunit selectivity, purified yeast proteasome yβ1; type: biochemical
T3 construct: measured using 8 μg/mL of purified yCP or iCP
Protocol: as §2
(§3) Values and standard deviations were calculated from an assay performed in biological triplicate.

[10] = biological target: T4, yeast proteasome yβ2 subunit (Saccharomyces cerevisiae, UniProt P25043+P25451); assay: Subunit selectivity, purified yeast proteasome yβ2; type: biochemical
T4 construct: measured using 8 μg/mL of purified yCP or iCP
Protocol: as §2, §3

[11] = Table 3, P2/P3 analogues, ± S.D., read-out: Proteasome Inhibition T-L-like IC50
[12] = read-out: Cytotoxicity MCF7 IC50, Table 3, MTT, 48 h
[13] = read-out: Cytotoxicity MDA-MB-231 IC50, Table 3, MTT, 48 h
[14] = Homo sapiens, MCF7, 48 h, read-out: Cytotoxicity MCF7 IC50
[15] = Homo sapiens, MDA-MB-231, 48 h, read-out: Cytotoxicity MDA-MB-231 IC50
[16] = Table 2, P1 analogues, ± S.D., read-out: Proteasome Inhibition T-L-like IC50

| SMILES | IC50 ([1]; Table 4, P4 analogues) [µM] | IC50 (MCF7 cells [2]) [µM] | IC50 (MDA-MB-231 cells [3]) [µM] | IC50 (RPMI 8226 cells [4]) [µM] | IC50 ([1]; Table 3, P2/P3 analogues) [µM] | IC50 [5, 11] [µM] | IC50 (MCF7 cells [6]; [14]) [µM] | IC50 (RPMI 8226 cells [7]; Homo sapiens, RPMI-8226, 48 h) [µM] | IC50 (MDA-MB-231 cells [8]; [15]) [µM] | other results |
| --- | --- | --- | --- | --- | --- | --- | --- | --- | --- | --- |
| CC[C@H](C)[C@@H]1C(=O)O[C@H]1C(=O)N[C@H](C(=O)N[C@H](C(=O)OCC1CCCCC1)C(C)C)C(C)C [Compound 11c, Cyclohexylmethyl((2R,3S)-3-((S)-sec-butyl)-4-oxooxetane-2-carbonyl)-L-valyl-L-valinate] | 0.013 ± 0.0052 | 4.57 ± 1.65 | 1.93 ± 0.917 | 0.461 ± 0.194 | – | – | – | – | – | – |
| CC[C@H](C)[C@@H]1C(=O)O[C@H]1C(=O)N[C@H](C(=O)N[C@H](C(=O)OCc1ccc(Cl)cc1)C(C)C)C(C)C [Compound 11b, 4-chlorobenzyl((2R,3S)-3-((S)-sec-butyl)-4-oxooxetane-2-carbonyl)-L-valyl-L-valinate] | 0.0102 ± 0.007 | 0.954 ± 0.351 | 0.307 ± 0.166 | 0.088 ± 0.012 | – | – | – | – | – | – |
| CC[C@H](C)[C@@H]1C(=O)O[C@H]1C(=O)N[C@@H](Cc1ccccc1)C(=O)N[C@H](C(=O)OCc1ccccc1)C(C)C [Compound 10b, Benzyl((2R,3S)-3-((S)-sec-butyl)-4-oxooxetane-2-carbonyl)-L-phenylalanyl-L-valinate] | – | – | – | – | 0.0077 ± 0.0017 | 3.82 ± 0.812 | – | – | – | subunit selectivity, ChT-L over T-L (in words) [1]: enhanced subunit selectivity; IC50 (MCF7 cells [6]; [12]): ~5 µM; IC50 (RPMI 8226 cells [7]; Table 3, MTT, 48 h): 2.33 ± 0.61 µM; IC50 (MDA-MB-231 cells [8]; [13]): 3.44 ± 0.722 µM |
| CC[C@H](C)[C@@H]1C(=O)O[C@H]1C(=O)N[C@H](C(=O)N[C@H](C(=O)OCc1ccc(OC)cc1)C(C)C)C(C)C [Compound 11f, 4-methoxybenzyl((2R,3S)-3-((S)-sec-butyl)-4-oxooxetane-2-carbonyl)-L-valyl-L-valinate] | 0.009 ± 0.0042 | – | – | – | – | – | – | – | – | IC50 (MCF7 cells [6]; read-out: Cytotoxicity MCF7 IC50, Table 4, MTT, 48 h): 0.574 ± 0.096 µM; IC50 (RPMI 8226 cells [7]; Table 4, MTT, 48 h): 0.117 ± 0.047 µM; IC50 (MDA-MB-231 cells [8]; read-out: Cytotoxicity MDA-MB-231 IC50, Table 4, MTT, 48 h): 0.265 ± 0.114 µM |
| CC[C@H](C)[C@@H]1C(=O)O[C@H]1C(=O)N[C@H](C(=O)N[C@H](C(=O)OCc1ccccc1)C(C)(C)C)C(C)C [Compound 10f, Benzyl(S)-2-((S)-2-((2R,3S)-3-((S)-sec-butyl)-4-oxooxetane-2-carboxamido)-3-methylbutanamido)-3,3-dimethylbutanoate] | – | – | – | – | 0.0159 ± 0.001 | – | 1.12 ± 0.332 | 1.39 ± 0.131 | 1.11 ± 0.582 | IC50 [5]: 3.71 ± 0.719 µM |
| CC[C@H](C)[C@@H]1C(=O)O[C@H]1C(=O)N[C@H](C(=O)N[C@H](C(=O)OC)C(C)C)C(C)C [Compound 11h, Methyl ((2R,3S)-3-((S)-sec-butyl)-4-oxooxetane-2-carbonyl)-L-valyl-L-valinate] | 0.0243 ± 0.0082 | – | – | – | – | – | 0.506 ± 0.207 | 0.293 ± 0.071 | 0.316 ± 0.044 | – |
| CC[C@H](C)[C@@H]1C(=O)O[C@H]1C(=O)N[C@@H](CC(C)C)C(=O)N[C@H](C(=O)OCc1ccccc1)C(C)C [Compound 10h, Benzyl((2R,3S)-3-((S)-sec-butyl)-4-oxooxetane-2-carbonyl)-L-leucyl-L-valinate] | – | 2.35 ± 0.458 | 2.08 ± 0.651 | 1.78 ± 1.02 | 0.0047 ± 0.0018 | 2.56 ± 0.39 | – | – | – | – |
| C=CCCOC(=O)[C@@H](NC(=O)[C@@H](NC(=O)[C@@H]1OC(=O)[C@H]1[C@@H](C)CC)C(C)C)C(C)C [Compound 11g, But-3-en-1-yl((2R,3S)-3-((S)-sec-butyl)-4-oxooxetane-2-carbonyl)-L-valyl-L-valinate] | 0.0087 ± 0.002 | 0.752 ± 0.384 | 0.361 ± 0.043 | 0.264 ± 0.048 | – | – | – | – | – | – |
| CC(C)[C@H](NC(=O)[C@@H]1OC(=O)[C@H]1C1CCCC1)C(=O)N[C@H](C(=O)OCc1ccccc1)C(C)C [Compound 9c, Benzyl ((2R,3S)-3-cyclopentyl-4-oxooxetane-2-carbonyl)-L-valyl-L-valinate] | – | – | – | – | – | – | ~25 | 1.98 ± 1 | 20.6 ± 3.94 | subunit selectivity, ChT-L over T-L (in words) [1]: greatest selectivity; IC50 ([1]; Table 2, P1 analogues): 0.0139 ± 0.0006 µM; IC50 [5, 16]: 10.2 ± 3.39 µM |
| CC[C@H](C)[C@@H]1C(=O)O[C@H]1C(=O)N[C@H](C(=O)N[C@H](C(=O)OCc1ccccc1)C(C)C)C(C)(C)C [Compound 10e, Benzyl((S)-2-((2R,3S)-3-((S)-sec-butyl)-4-oxooxetane-2-carboxamido)-3,3-dimethylbutanoyl)-L-valinate] | – | 2.14 ± 0.122 | 1.03 ± 0.644 | 1.05 ± 0.75 | 0.0229 ± 0.0025 | 5.18 ± 1.49 | – | – | – | subunit selectivity, ChT-L over T-L (in words) [1]: enhanced subunit selectivity |
| CC[C@H](C)[C@@H]1C(=O)O[C@H]1C(=O)N[C@H](C(=O)N[C@@H](Cc1ccccc1)C(=O)OCc1ccccc1)C(C)C [Compound 10c, Benzyl((2R,3S)-3-((S)-sec-butyl)-4-oxooxetane-2-carbonyl)-L-valyl-phenylalaninate] | – | – | – | – | 0.0054 ± 0.0029 | 1.66 ± 0.204 | – | – | – | IC50 (MCF7 cells [6]; [12]): 2.3 ± 0.142 µM; IC50 (RPMI 8226 cells [7]; Table 3, MTT, 48 h): 1.03 ± 0.045 µM; IC50 (MDA-MB-231 cells [8]; [13]): 2.57 ± 0.705 µM |
| CC[C@H](C)[C@@H]1C(=O)O[C@H]1C(=O)N[C@@H](Cc1ccccc1)C(=O)N[C@@H](Cc1ccccc1)C(=O)OCc1ccccc1 [Compound 10d, Benzyl((2R,3S)-3-((S)-sec-butyl)-4-oxooxetane-2-carbonyl)-L-phenylalanyl-L-phenylalaninate] | – | – | – | – | 0.0126 ± 0.0057 | 3.05 ± 1.27 | – | – | – | IC50 (MCF7 cells [6]; [12]): 3.62 ± 2.5 µM; IC50 (RPMI 8226 cells [7]; Table 3, MTT, 48 h): 1.28 ± 0.527 µM; IC50 (MDA-MB-231 cells [8]; [13]): 4.66 ± 1.54 µM |
| CC[C@H](C)[C@@H]1C(=O)O[C@H]1C(=O)N[C@H](C(=O)N[C@H](C(=O)OCc1ccccc1)C(C)(C)C)C(C)(C)C [Compound 10g, Benzyl(S)-2-((S)-2-((2R,3S)-3-((S)-sec-butyl)-4-oxooxetane-2-carboxamido)-3,3-dimethylbutanamido)-3,3-dimethylbutanoate] | – | – | – | – | 0.0214 ± 0.0088 | 4.53 ± 2.18 | 1.69 ± 0.102 | 0.866 ± 0.532 | 0.953 ± 0.484 | – |
| CC(C)C[C@@H]1C(=O)O[C@H]1C(=O)N[C@H](C(=O)N[C@H](C(=O)OCc1ccccc1)C(C)C)C(C)C [Compound 9d, Benzyl ((2R,3S)-3-isobutyl-4-oxooxetane-2-carbonyl)-L-valyl-L-valinate] | – | – | – | – | – | – | ~40 | 19.9 ± 8.06 | 25.3 ± 2.94 | IC50 ([1]; Table 2, P1 analogues): 0.016 ± 0.0047 µM; IC50 [5, 16]: 6.67 ± 3.44 µM |
| CC[C@H](C)[C@@H]1C(=O)O[C@H]1C(=O)N[C@H](C(=O)N[C@H](C(=O)OCC(C)C)C(C)C)C(C)C [Compound 11d, Isobutyl((2R,3S)-3-((S)-sec-butyl)-4-oxooxetane-2-carbonyl)-L-valyl-L-valinate] | 0.0094 ± 0.0037 | 0.634 ± 0.072 | 0.355 ± 0.123 | 0.099 ± 0.007 | – | – | – | – | – | – |
| CC[C@H](C)[C@@H]1C(=O)O[C@H]1C(=O)N[C@@H](COCc1ccccc1)C(=O)N[C@H](C(=O)OCc1ccccc1)C(C)C [Compound 10j, BenzylO-benzyl-N-((2R,3S)-3-((S)-sec-butyl)-4-oxooxetane-2-carbonyl)-L-seryl-L-valinate] | – | – | – | – | 0.0069 ± 0.0002 | 0.792 ± 0.24 | – | – | – | IC50 (MCF7 cells [6]; [12]): 2.77 ± 0.791 µM; IC50 (RPMI 8226 cells [7]; Table 3, MTT, 48 h): 1.43 ± 0.526 µM; IC50 (MDA-MB-231 cells [8]; [13]): 2.21 ± 0.764 µM |
| CC(C)[C@H](NC(=O)[C@@H]1OC(=O)[C@H]1C1CCC1)C(=O)N[C@H](C(=O)OCc1ccccc1)C(C)C [Compound 9b, Benzyl ((2R,3S)-3-cyclobutyl-4-oxooxetane-2-carbonyl)-L-valyl-L-valinate] | – | – | – | – | – | – | > 50 | 30.4 ± 4.75 | ~50 | IC50 ([1]; Table 2, P1 analogues): 0.0265 ± 0.0077 µM; IC50 [5, 16]: 3.73 ± 0.775 µM |
| CC(C)C[C@H](NC(=O)[C@H](CCc1ccccc1)NC(=O)CN1CCOCC1)C(=O)N[C@@H](Cc1ccccc1)C(=O)N[C@@H](CC(C)C)C(=O)[C@@]1(C)CO1 [Carfilzomib, reference compound] | – | – | – | – | – | – | 0.004 ± 0.001 | – | 0.004 ± 0.002 | IC50 [9]: > 1 µM; IC50 [10]: > 1 µM; IC50 (MCF7 cells [6]; Homo sapiens, MCF7, read-out: Cytotoxicity MCF7 IC50): 0.00408 ± 5.6e-05 µM; IC50 (MDA-MB-231 cells [8]; Homo sapiens, MDA-MB-231, read-out: Cytotoxicity MDA-MB-231 IC50): 0.00279 ± 0.000464 µM |
